In brackets after ≈: the same amount, converted by molar mass.
Details: buffer; pH 7.4; 200.0 µM

SMILES	solubility kinetic [µg/mL]
CCOC(=O)CSc1ccc2ccccc2n1	19.5 (≈ 78.8 µM)
O=C(COc1ccc(Br)cc1)N(CCO)CCO	34.5 (≈ 108 µM)
CCCC(CCC)C(=O)Nc1cccc(-c2cn3c(n2)SCC3)c1	4 (≈ 11.6 µM)
COC(=O)CS(=O)(=O)c1cc([N+](=O)[O-])ccc1NC(=O)OC	38.7 (≈ 116 µM)
COC(=O)c1sccc1NC(=O)C1CCCCC1C(=O)O (stereo not given)	42.1 (≈ 135 µM)
COCCCNc1nc(N)c([N+](=O)[O-])c(NCC2CCCO2)n1 (stereo not given)	> 49
Cc1ccc(CNC(=O)C2CCC(=O)N(C3CC3)C2)cc1 (stereo not given)	> 43
CCOC(=O)C1CCN(S(=O)(=O)c2ccc(Cl)nc2)CC1	47.3 (≈ 142 µM)
O=C(COC(=O)C1CC1)Nc1ccc(S(=O)(=O)N2CCOCC2)cc1	> 55.3
O=C(Cc1ccc([N+](=O)[O-])cc1)NCc1cccnc1	> 40.7
CC(=O)c1ccc(-n2cc(C#N)c(=O)[nH]c2=O)cc1	34.7 (≈ 136 µM)
C=CCSc1ncccc1C(=O)NCCc1ccc(Cl)cc1	3.6 (≈ 10.8 µM)
CC(C)c1ccc(NC2CCCN(C(=O)c3ccoc3)C2)cc1 (stereo not given)	> 46.9
CCOC(=O)C1CCCN(C(=O)c2cc3ccc(OC)cc3[nH]2)C1 (stereo not given)	> 49.6
Cc1cc(C)cc(OCC(=O)O/N=C(\N)Cc2ccc([N+](=O)[O-])cc2)c1	20.4 (≈ 57.1 µM)
CCS(=O)(=O)N1CCC(N2CCC(C)CC2)CC1.O=C(O)C(=O)O	53.3
CN1CCCN(C(=O)COc2ccc(F)cc2F)CC1	> 42.6
CN(C)CC#CCn1c2ccccc2c2ccccc21.Cl	> 44.8
Cc1cnc(=O)[nH]c1SCc1ccc(C(F)(F)F)cc1	5.1 (≈ 17 µM)
COc1cc(C)nc(NS(=O)(=O)c2ccccc2Cl)n1	38.9 (≈ 124 µM)

SMILES	solubility kinetic [µg/mL]
COc1cc(CSc2nc(-c3ccccc3)cc(=O)[nH]2)cc(OC)c1	< 0.4
CC(=O)c1cccc(NC(=O)N2CCC(NC(=O)c3ccco3)CC2)c1	51.6 (≈ 145 µM)
CC1(C)CC(NC(=O)c2ccc(Br)o2)CC(C)(C)N1	> 49.4
COc1ccccc1NC(=O)COC(=O)CCC1CCCC1	42.1 (≈ 138 µM)
O=C(NC1CCCCC1)c1ccc(-n2cncn2)c([N+](=O)[O-])c1	> 47.3
CC(=O)Oc1ccc2oc(-c3ccccc3)c(C(N)=O)c2c1	1.4 (≈ 4.74 µM)
COc1cccc(-n2c(-c3ccccc3)c[nH]c2=S)c1	7.8 (≈ 27.6 µM)
CC(C)CC(N=Cc1c(O)c2ccccc2oc1=O)C(=O)O (stereo not given)	> 45.5
COCCNC(=S)N1CCC(NC(=O)c2ccco2)CC1	> 46.7
CCC(Oc1ccccc1OC)C(=O)Nc1ccc2c(c1)n(C)c(=O)n2C (stereo not given)	> 55.4
Cc1cc(C(=O)OCC(=O)N(C)c2ccccc2)c2ccccc2n1	> 50.2
O=C(OCc1csc(-c2ccccc2)n1)c1ccccc1O	< 0.7
Cc1ccccc1NC(=O)CCCNC(=O)c1ccc(Cl)cc1	42.6 (≈ 129 µM)
CN(C)c1ccc(C=C2C(=O)NC(=O)NC2=O)cc1[N+](=O)[O-]	> 45.6
CC(C)(C)c1ccc(NC(=O)COC(=O)C2CCCC2)cc1	13.5 (≈ 44.5 µM)
O=C(CNC(=O)c1ccccc1F)OCC(=O)c1c[nH]c2ccccc12	43 (≈ 121 µM)
O=C(COC(=O)c1cc(=O)[nH]c2ccccc12)Nc1ccc(F)cc1F	13.7 (≈ 38.2 µM)
O=C(CCN1CCN(CCO)CC1)Nc1cccc(Br)c1	> 53.4
CCCCOc1ccc(C(=O)Nc2ccc(CN3CCOCC3)cc2)cc1	1.1 (≈ 2.99 µM)
NC(=O)COC(=O)c1cc([N+](=O)[O-])ccc1NCCO	> 42.5

SMILES	solubility kinetic [µg/mL]
Cn1cccc1/C=C1/C(=O)NC(=O)N(Cc2ccc(F)cc2)C1=O	5.4 (≈ 16.5 µM)
O=C(COc1ccccc1)Nc1ccccc1C(=O)NC1CC1	6.4 (≈ 20.6 µM)
Cc1cccc(Oc2nc3c(c(=O)n(C)c(=O)n3C)n2C)c1	> 45
CCCCC/C(=N/O)c1c(C)[nH]c2ccccc12	29.8 (≈ 122 µM)
COc1ccccc1N1CCN(C(=O)c2cc3ccccc3[nH]2)CC1	2.7 (≈ 8.05 µM)
Cc1ccc(S(=O)(=O)NCCNC(=O)CN2CCOCC2)cc1	48.8 (≈ 143 µM)
COc1cccc(C(=O)OCC(=O)N2CCc3ccccc3C2)c1OC	11.7 (≈ 32.9 µM)
Cc1c(NS(C)(=O)=O)cccc1-c1nc2cccnc2s1	42.9 (≈ 134 µM)
Cc1ccc(NC(=O)C2CC(O)CN2C(=O)OCc2ccccc2)cc1C (stereo not given)	48.8 (≈ 132 µM)
Cc1sc(N)nc1-c1ccc2c(c1)OCCO2	19.5 (≈ 78.5 µM)
COc1ccccc1NC(=O)c1ccc(NC(=O)C2CC2C)cc1 (stereo not given)	10.3 (≈ 31.8 µM)
O=c1[nH]c2ccccc2[nH]c1=O	> 24.3
CCn1c(=O)c2ccccc2n2c(SCC(N)=O)nnc12	> 45.5
OCCOCCN1CCN(C(=S)Nc2ccccc2)CC1	> 46.4
CC(C)(C)NC(=O)NC(=O)CN1CCN(c2ccccc2)CC1	> 47.8
COc1cccc(-c2nc(-c3ccncc3)no2)c1	3.5 (≈ 13.8 µM)
Cl.OC(CNCc1ccncc1)c1ccccc1 (stereo not given)	> 39.7
CC1(C)CCc2cc(CN3CCN(c4ccccn4)CC3)ccc2O1	47.5 (≈ 141 µM)
CC(C)CC(NC(N)=O)C(=O)Nc1ccc2c(c1)OCO2 (stereo not given)	> 44
CC(C)c1ccc(NC(=S)NC2CC3C=CC2C3)cc1 (stereo not given)	1.4 (≈ 4.89 µM)

— PubChem BioAssay AID1996
